As a reminder, the pIC50 is the negative decadic logarithm of the IC50, by convention in mol/L.

The target of test [1] is His-tagged KRAS G12D protein (Homo sapiens, UniProt P01116, G12D). As to the kind of experiment: KRAS G12D TR-FRET Assay.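 Note: europium anti-His antibody paired with streptavidin-d2 as FRET partners, initial 30 min incubation, then peptide 1 h and detection reagents 1 h, all at room temperature.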 Format: binding. Conditions: biotinylated KRPep-2d substrate, 10 μM GDP. A general note: In TR-FRET formats the signal depends on donor and acceptor labels being close together.
Chain of His-tagged KRAS G12D protein (P01116 1-188 isoform P01116-2 G12D): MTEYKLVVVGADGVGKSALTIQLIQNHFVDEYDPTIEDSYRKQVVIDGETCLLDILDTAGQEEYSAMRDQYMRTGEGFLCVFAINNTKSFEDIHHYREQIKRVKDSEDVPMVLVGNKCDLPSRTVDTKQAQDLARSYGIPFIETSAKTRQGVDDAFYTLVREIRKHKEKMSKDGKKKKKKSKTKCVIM
The target in test [2] is GDP-bound KRAS protein (aa 1-169), containing both G12D and C118A amino acid substitutions (Homo sapiens, UniProt P01116, C118A/G12D). Put plainly: KRAS G12D Coupled Nucleotide Exchange Assay.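 Note: IC50 obtained by fitting the AlphaScreen signal with a four-parameter logistic curve.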 The test is classed as biochemical. As to conditions: 2 h compound pre-incubation; SOS-mediated nucleotide exchange, cRAF AlphaScreen readout. (In Alpha technology, singlet oxygen from a donor bead excites a nearby acceptor bead.)
Chain of GDP-bound KRAS protein (aa 1-169), containing both G12D and C118A amino acid substitutions (P01116 1-169 isoform P01116-2 G12D/C118A): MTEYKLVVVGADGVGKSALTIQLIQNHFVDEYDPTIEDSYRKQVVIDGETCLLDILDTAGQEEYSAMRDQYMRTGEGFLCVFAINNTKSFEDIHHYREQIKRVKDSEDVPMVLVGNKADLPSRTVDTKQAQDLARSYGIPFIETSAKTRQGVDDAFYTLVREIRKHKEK

In test [3] the test system is Phosphorylation of ERK1/2 in A-427 cells. Put plainly: Phospho-ERK1/2 MSD Assay. The test is classed as cell-based. Conditions: Homo sapiens, A-427, 2 h, 2 h compound treatment, read-out: pERK (A427 cells) IC50. On the procedure:
A-427 (ATCC® HTB-53™) cells were cultured in RPMI 1640 Medium (ThermoFisher Scientific 11875093) containing 10% fetal bovine serum (ThermoFisher Scientific 16000044) and 1× penicillin-streptomycin-glutamine (ThermoFisher Scientific 10378016). Sixteen hours prior to compound treatment, A-427 cells were seeded in 96-well cell culture plates at a density of 25,000 cells/well and incubated at 37° C., 5% CO2. A compound dose-response titration was diluted in growth media, added to appropriate wells of a cell culture plate, and then incubated at 37° C., 5% CO2 for 2 h. Following compound treatment, cells were washed with ice-cold Dulbecco's phosphate-buffered saline, no Ca^2+ or Mg^2+ (ThermoFisher Scientific 14190144), and then lysed in RIPA buffer (50 mM Tris-HCl pH 7.5, 1% Igepal, 0.5% sodium deoxycholate, 150 mM NaCl, and 0.5% sodium dodecyl sulfate) containing protease inhibitors (Roche 4693132001) and phosphatase inhibitors (Roche 4906837001). Phosphorylation of ERK1/2 in compound-treated lysates was assayed using Phospho-ERK1/2 Whole Cell Lysate kits (Meso Scale Discovery K151DWD) according to the manufacturer's protocol. Assay plates were read on a Meso Scale Discovery Sector Imager 6000, and data were analyzed using a 4-parameter logistic model to calculate IC50 values.

The structures appear in SMILES notation. pIC50: −log10 of the molar value. Where only a bound is given, the exact number is not on record here.

Consider `CN1CCC[C@H]1COc1nc(N2C3CNCC2C3)c2cc(Cl)c(-c3cccc4sc(N)nc34)c(F)c2n1` [Example 18, 4-(4-(3,6-diazabicyclo[3.1.1]heptan-6-yl)-6-chloro-8-fluoro-2-(((S)-1-methylpyrrolidin-2-yl)methoxy)quinazolin-7-yl)benzo[d]thiazol-2-amine], for which the negative logarithm of the IC50 (pIC50) in test [1] was 6.80; in test [3], < 4.60. Also, the “Avg 2 h Coupled Exchange IC50” value in test [2] worked out at 49 nM.
In the case of `CN1CCC[C@H]1COc1nc(N2CCNC3CC32)c2cc(Cl)c(-c3cccc4sc(N)nc34)c(F)c2n1` (stereo partly drawn) [Example 20, 4-(4-(2,5-diazabicyclo[4.1.0]heptan-2-yl)-6-chloro-8-fluoro-2-(((S)-1-methylpyrrolidin-2-yl)methoxy)quinazolin-7-yl)benzo[d]thiazol-2-amine], the results for the pIC50 in test [1] and in test [3] were 6.77 and 5.60, respectively. For the same compound, the “Avg 2 h Coupled Exchange IC50” value in test [2] was 63 nM.
With `Nc1nc2c(-c3c(Cl)cc4c(N5CCCNCC5)nc(OC[C@@]56CCCN5C[C@H](F)C6)nc4c3F)ccc(F)c2s1` [Example 28, 4-(6-chloro-4-(1,4-diazepan-1-yl)-8-fluoro-2-(((2R,7aS)-2-fluorotetrahydro-1H-pyrrolizin-7a(5H)-yl)methoxy)quinazolin-7-yl)-7-fluorobenzo[d] thiazol-2-amine], the pIC50 in test [1] was 8.10; in test [3], 5.64. Moreover, the “Avg 2 h Coupled Exchange IC50” value in test [2] amounted to 3 nM.
Regarding `Nc1nc2c(-c3c(Cl)cc4c(N5CC6CCC(C5)NC6)nc(OC[C@@]56CCCN5C[C@H](F)C6)nc4c3F)ccc(F)c2s1` (stereo partly drawn) [Example 31, 4-(4-(3,6-diazabicyclo[3.2.2]nonan-3-yl)-6-chloro-8-fluoro-2-(((2R,7aS)-2-fluorotetrahydro-1H-pyrrolizin-7a(5H)-yl)methoxy)quinazolin-7-yl)-7-fluorobenzo[d] thiazol-2-amine], the pIC50 was 8.22 in test [1] and 5.99 in test [3]. Also, the “Avg 2 h Coupled Exchange IC50” value in test [2] was found to be 5 nM.
In the same order, the values of `Nc1nc2c(-c3c(Cl)cc4c(N5CC6CC5CCN6)nc(OC[C@@]56CCCN5C[C@H](F)C6)nc4c3F)ccc(F)c2s1` (stereo partly drawn) [Example 34, 4-(4-(2,6-diazabicyclo[3.2.1]octan-6-yl)-6-chloro-8-fluoro-2-(((2R,7aS)-2-fluorotetrahydro-1H-pyrrolizin-7a(5H)-yl)methoxy)quinazolin-7-yl)-7-fluorobenzo[d] thiazol-2-amine] are 7.96, 5.51 and 4 nM.
In the same order, the values of `CN1CCC[C@H]1COc1nc(N2CCCNCCC2)c2cc(Cl)c(-c3cccc4sc(N)nc34)c(F)c2n1` [Example 35, 4-(6-chloro-4-(1,5-diazocan-1-yl)-8-fluoro-2-(((S)-1-methylpyrrolidin-2-yl)methoxy)quinazolin-7-yl)benzo[d]thiazol-2-amine] are 6.47, < 5.00 and 65 nM.
In the same order, the values of `Nc1nc2c(-c3c(Cl)cc4c(N5C[C@@H]6CC[C@H]5CN6)nc(OC[C@@]56CCCN5C[C@H](F)C6)nc4c3F)ccc(F)c2s1` [Example 38, 4-(4-((15,4S)-2,5-diazabicyclo[2.2.2]octan-2-yl)-6-chloro-8-fluoro-2-(((2R,7aS)-2-fluorotetrahydro-1H-pyrrolizin-7a(5H)-yl)methoxy)quinazolin-7-yl)-7-fluorobenzo[d] thiazol-2-amine] are 8.22, 5.96 and 13 nM.
Regarding `Nc1nc2c(-c3c(Cl)cc4c(N5CCNC6CC65)nc(OC[C@@]56CCCN5C[C@H](F)C6)nc4c3F)ccc(F)c2s1` (stereo partly drawn) [Example 39, 4-(4-(2,5-diazabicyclo[4.1.0]heptan-2-yl)-6-chloro-8-fluoro-2-(((2R,7aS)-2-fluorotetrahydro-1H-pyrrolizin-7a(5H)-yl)methoxy)quinazolin-7-yl)-7-fluorobenzo[d] thiazol-2-amine], the pIC50 is 7.96 in test [1] and 6.01 in test [3]. Also, the “Avg 2 h Coupled Exchange IC50” value in test [2] was determined as 14 nM.
As for `Nc1nc2c(-c3c(Cl)cc4c(N5CCNC6CCCC65)nc(OC[C@@]56CCCN5C[C@H](F)C6)nc4c3F)ccc(F)c2s1` (stereo partly drawn) [Example 40, 4-(6-chloro-8-fluoro-2-(((2R,7aS)-2-fluorotetrahydro-1H-pyrrolizin-7a(5H)-yl)methoxy)-4-(octahydro-1H-cyclopenta[b]pyrazin-1-yl)quinazolin-7-yl)-7-fluorobenzo[d] thiazol-2-amine], the results for the pIC50 in test [1] and in test [3] were 7.29 and 5.25, respectively. In addition, in test [2], the “Avg 2 h Coupled Exchange IC50” value was 48 nM.
In the same order, the values of `Nc1nc2c(-c3c(Cl)cc4c(N5CCNCC5)nc(OC[C@@H]5C[C@@H](F)CN5)nc4c3F)cccc2s1` [Example 47, 4-(6-chloro-8-fluoro-2-(((2S,4R)-4-fluoro-pyrrolidin-2-yl)methoxy)-4-(piperazin-1-yl)quinazolin-7-yl)benzo[d] thiazol-2-amine] are 7.09, < 4.60 and 26 nM.
With `Nc1nc2c(-c3c(Cl)cc4c(N5CCNCC5)nc(OC[C@]56CCCN5[C@@H](CO)CC6)nc4c3F)cccc2s1` [Example 50, ((3R,7aR)-7a-(((7-(2-aminobenzo[d]thiazol-4-yl)-6-chloro-8-fluoro-4-(piperazin-1-yl)quinazolin-2-yl)oxy)methyl)hexahydro-1H-pyrrolizin-3-yl)methanol], the figures for the pIC50 in test [1] and in test [3] were 7.26 and 4.69, respectively. Besides, in test [2], the “Avg 2 h Coupled Exchange IC50” value was 42 nM.
In the same order, the values of `Nc1nc2c(-c3c(Cl)cc4c(N5CCNCC5)nc(OC[C@@]56CCCN5[C@@H](CO)CC6)nc4c3F)cccc2s1` [Example 51, ((3R,7aS)-7a-(((7-(2-aminobenzo[d]thiazol-4-yl)-6-chloro-8-fluoro-4-(piperazin-1-yl)quinazolin-2-yl)oxy)methyl)hexahydro-1H-pyrrolizin-3-yl)methanol] are 7.28, 4.78 and 42 nM.
In the same order, the values of `CN1CC[C@H]1COc1nc(N2CCNCC2)c2cc(Cl)c(-c3cccc4sc(N)nc34)c(F)c2n1` [Example 52, 4-(6-chloro-8-fluoro-2-(((S)-1-methylazetidin-2-yl)methoxy)-4-(piperazin-1-yl)quinazolin-7-yl)benzo[d] thiazol-2-amine] are 6.87, 4.80 and 59 nM.
Taken in the same sequence, the figures for `CN1CC[C@@H](COc2nc(N3CCNCC3)c3cc(Cl)c(-c4cccc5sc(N)nc45)c(F)c3n2)C1` [Example 53, 4-(6-chloro-8-fluoro-2-(((R)-1-methyl-pyrrolidin-3-yl)methoxy)-4-(piperazin-1-yl)quinazolin-7-yl)benzo[d] thiazol-2-amine] were 6.38, < 4.60 and 75 nM.
With `Nc1nc2c(-c3c(Cl)cc4c(N5CCNCC5)nc(OC[C@@H]5CCCN5CCF)nc4c3F)cccc2s1` [Example 56, 4-(6-chloro-8-fluoro-2-(((S)-1-(2-fluoroethyl)pyrrolidin-2-yl)methoxy)-4-(piperazin-1-yl)quinazolin-7-yl)benzo[d] thiazol-2-amine], the pIC50 in test [1] is 6.58; in test [3] it was 5.25. In addition, the “Avg 2 h Coupled Exchange IC50” value in test [2] is 118 nM.

The values above are taken from patent US20250059179A1, “Heterocyclic Compounds and Methods of Use” (AMGEN INC., priority 2021, published 2025).
